What was measured:
BON cells [1] = assay: Guava Nexin apoptosis assay (Annexin V / 7-AAD); type: cell-based, human; conditions: 6 hours after treatment with staurosporin, % of Total
Protocol: Cells were then switched to growth media without FBS and allowed to grow for another 24 hours before applying treatments. Samples were collected and counted in accordance with Guava Technologies' Viacount Flex (Cat#4500-0110) instructions. At the end of each antibody treatment, cells were dissociated from the plate using 1× trypsin-EDTA (Invitrogen Cat#2520). […] Next, phosphate buffer solution (D-PBS) (Invitrogen Cat#14190-144) (Invitrogen) was used as the exchange buffer to resuspend the cell pellet. […] Detection was achieved by using Guava PCA96 instrument and data was analysed by using Guava Nexin software module as (Cat#0500-0250). […] Following the protocol for the Guava Nexin™ assay (Guava Technologies), two different dyes were used to stain for cells undergoing apoptosis: 7-AAD stains for dead and late apoptosis cells (upper right quadrant of each graph in FIG. 10), and Annexin V stains for cells undergoing apoptosis from the early stage (lower right quadrant of each graph in FIG. 10). […] Once every 24 hours for 72 hours (FIGS. 10B, 10C and 10D), cells were collected and tested for apoptosis status using the Guava Nexin™ assay (Guava Technologies).

BON cells [2] = assay: Guava Nexin apoptosis assay (Annexin V / 7-AAD); type: cell-based, human; conditions: 6 hours after treatment with staurosporin, % of Total; remark: listed apart in the source

Compound: CN[C@@H]1C[C@H]2O[C@@](C)([C@@H]1OC)n1c3ccccc3c3c4c(c5c6ccccc6n2c5c31)C(=O)NC4 [Staurosporine]
- Early apoptotic cells (Lower Right Quadrant) (BON cells [1]): 28.7%
- Late apoptotic cells (Upper Right Quadrant) (BON cells [1]): 23.7%
- Live, healthy cells (Lower Left Quadrant) (BON cells [1]): 46.7%
- Annexin V+ (BON cells [2]): 52.3%
- Nuclear Debris (Upper Left Quadrant) (BON cells [2]): 1.0%

Reference: US20090016989A1, “ANTIBODIES TO HUMAN SOMATOSTATIN RECEPTOR AND METHODS OF USE” (priority 2007, published 2009)
